Results on 16 compounds are retold here after patent US9951058B2, “Compound, pharmaceutically acceptable salt or optical isomer thereof, method for preparing the same, and pharmaceutical composition for prevention or treatment of viral diseases containing same as active ingredient” (Korea Research Institute of Chemical Technology, priority 2012, dated 2018).

The subject of one series is HRV 14. The series can be described thus: Cytopathic effect (CPE) inhibition assay. The note with it: Human rhinovirus sp., HeLa, 72 h, host cell HeLa, 3 days, MEM/2% FBS, MTT assay; read-out: EC50 HRV 14. The series is classed as cell-based, human rhinovirus.
A further series concerns HRV 21. The series can be described thus: Cytopathic effect (CPE) inhibition assay. The series is classed as cell-based, human rhinovirus. The conditions noted are these: Human rhinovirus sp., 72 h; host cell HeLa, 3 days, MEM/2% FBS, MTT assay; read-out: EC50 HRV 21. (In general: Damage to the host cells serves as the signal in cytopathic effect assays.)
For the next series, the system named is HRV 71. The experiment in a line: Cytopathic effect (CPE) inhibition assay. The series is classed as cell-based, human rhinovirus. The note with it: Human rhinovirus sp., 72 h; host cell HeLa, 3 days, MEM/2% FBS, MTT assay; read-out: EC50 HRV 71.
For series [1], the system named is coxsackievirus B1 (Cox B1). The experiment in a line: Multicycle cytopathic effect (CPE) reduction assay. The series is classed as cell-based. The note with it: Enterovirus B, B1, 72 h, read-out: EC50 CoxB1.
For series [2], the system named is coxsackievirus B3 (Cox B3). The series can be described thus: Multicycle cytopathic effect (CPE) reduction assay. The series is classed as cell-based. The note with it: Enterovirus B, B3, 72 h, read-out: EC50 CoxB3.
The next series relates to poliovirus 3 (PV3). The experiment in a line: microbe, parasite or virus in culture. The series is classed as cell-based. The conditions noted are these: Enterovirus C, 72 h, read-out: EC50 PV3.
A short description of another series: in vitro. The conditions noted are these: human.
Series [3] in a line: Cytotoxicity (CC50) in multicycle CPE reduction assay, MTS. The conditions noted are these: human.

Converted amounts (≈) assume the structure as drawn.

Take `CC(C)c1ccc2c(c1)OC1(O)c3cccc(N)c3C(=O)C21NC(=O)C(=O)c1ccccc1` (stereo not shown) [Example 11, N-(1-amino-4b-hydroxy-7-isopropyl-10-oxo-9b, 10-dihydro-4bH-indeno[1,2-b]benzofuran-9b-yl)-2-oxo-2-phenyl acetamide]: the EC50 – broadly, the concentration giving half of the maximal effect – with HRV 14 was less than 0.1 µg/mL; with HRV 21 it was 3.13 µg/mL (≈ 7.07 µM); in the series on HRV 71, greater than 7.82 µg/mL; in series [1], less than 0.01 µg/mL; in series [2] it was less than 0.01 µg/mL; with poliovirus 3 (PV3), less than 0.1 µg/mL. For the same compound, the CC50 in the series “in vitro” came out at 7.82 µg/mL (≈ 17.7 µM). In series [3], this compound had a CC50 at 3 days of 8.72 µg/mL (≈ 19.7 µM).

For `CC(=O)C(=O)NC12C(=O)c3ccccc3C1(O)Oc1cc(C)c(C)cc12` (stereo not shown) [Example 14, N-(4b-hydroxy-7,8-dimethyl-10-oxo-9b, 10-dihydro-4bH-indeno[1,2-b]benzofuran-9b-yl)-2-oxo propanamide], the EC50 in the series on HRV 14 is 1.82 µg/mL (≈ 5.18 µM); in the series with HRV 21, greater than 8.87 µg/mL; in the series with HRV 71, greater than 8.87 µg/mL; in series [1] it was 0.015 µg/mL (≈ 0.0427 µM); in series [2], 0.067 µg/mL (≈ 0.191 µM); with poliovirus 3 (PV3), greater than 8.57 µg/mL. Also, the CC50 in “in vitro” came to 8.87 µg/mL (≈ 25.2 µM). The compound also returned a CC50 at 3 days in series [3] of 8.57 µg/mL (≈ 24.4 µM).

Consider `CC(=O)C(=O)NC12C(=O)c3c(N)cccc3C1(O)Oc1cc(C(C)C)ccc12` (stereo not shown) [Example 22, N-(1-amino-4b-hydroxy-7-isopropyl-10-oxo-4b, 10-dihydro-9bH-indeno[1,2-b]benzofuran-9b-yl)-2-oxo propanamide], for which the EC50 was less than 0.01 µg/mL with HRV 14; less than 10 µg/mL in the series with HRV 21; 8.5 µg/mL (≈ 22.3 µM) in the series on HRV 71; less than 0.01 µg/mL in series [1]; less than 0.01 µg/mL in series [2]; less than 0.1 µg/mL with poliovirus 3 (PV3). In addition, in the series “in vitro”, the CC50 was greater than 10 µg/mL. The compound also returned a CC50 at 3 days in series [3] greater than 10 µg/mL.

Regarding `CC(C)c1ccc2c(c1)OC1(O)c3ccccc3C(=O)C21NC(=O)C(=O)C(C)(C)C` (stereo not shown) [Example 37, N-(4b-hydroxy-7-isopropyl-10-oxo-4b, 10-dihydro-9bH-indeno[1,2-b]benzofuran-9b-yl)-3,3-dimethyl-2-oxo butanamide], the EC50 in the series with HRV 14 was less than 0.1 µg/mL; in the series on HRV 21 it was greater than 10 µg/mL; with HRV 71, greater than 10 µg/mL; in series [1] it was less than 0.1 µg/mL; in series [2], less than 0.1 µg/mL; in the series with poliovirus 3 (PV3), less than 10 µg/mL. Also, the CC50 in the series “in vitro” is greater than 10 µg/mL. For the same compound, in series [3], the CC50 at 3 days was greater than 10 µg/mL.

With `CC(C)c1ccc2c(c1)OC1(O)c3c(cccc3[N+](=O)[O-])C(=O)C21NC(=O)C(=O)N(C)C` (stereo not shown) [Example 30, N1-(4b-hydroxy-7-isopropyl-4-nitro-10-oxo-4b, 10-dihydro-9bH-indeno[1,2-b]benzofuran-9b-yl)-N2-N2-dimethyl oxal amide], the EC50 is greater than 10 µg/mL with HRV 14; greater than 10 µg/mL in the series on HRV 21; greater than 10 µg/mL in the series on HRV 71; less than 10 µg/mL in series [1]; less than 10 µg/mL in series [2]; greater than 10 µg/mL with poliovirus 3 (PV3). The compound also showed a CC50 in the series “in vitro” greater than 10 µg/mL. The CC50 at 3 days in series [3] was greater than 10 µg/mL.

For the compound `Cc1cc(C)c(C(=O)C(=O)NC23C(=O)c4c(N)cccc4C2(O)Oc2cc(C(C)C)ccc23)c(C)c1` (stereo not shown) [Example 54, N-(1-amino-4b-hydroxy-7-isopropyl-10-oxo-4b, 10-dihydro-9bH-indeno[1,2-b]benzofuran-9b-yl)-2-mesityl-2-oxo acetamide], the EC50 with HRV 14 is less than 1 µg/mL; in the series with HRV 21, greater than 8.6 µg/mL; in the series with HRV 71 it was greater than 8.6 µg/mL; in series [1], less than 0.1 µg/mL; in series [2] it was less than 0.1 µg/mL; in the series with poliovirus 3 (PV3), less than 10 µg/mL. This compound also displayed a CC50 in the series “in vitro” of 8.6 µg/mL (≈ 17.7 µM). This compound also returned a CC50 at 3 days in series [3] greater than 10 µg/mL.

For `CNC(=O)C(=O)NC12C(=O)c3ccccc3C1(O)Oc1cc(C(C)C)ccc12` (stereo not shown) [Example 27, N1-(4b-hydroxy-7-isopropyl-10-oxo-4b, 10-dihydro-9bH-indeno[1,2-b]benzofuran-9b-yl)-N2-methyl oxal amide], the EC50 in the series on HRV 14 is less than 1 µg/mL; in the series on HRV 21 it was greater than 10 µg/mL; in the series with HRV 71, greater than 10 µg/mL; in series [1], less than 0.1 µg/mL; in series [2], less than 0.1 µg/mL; in the series with poliovirus 3 (PV3), less than 10 µg/mL. Also, the CC50 in “in vitro” was greater than 10 µg/mL. Besides, in series [3], the CC50 at 3 days was greater than 10 µg/mL.

In the case of `CCCC(=O)C(=O)NC12C(=O)c3ccccc3C1(O)Oc1cc(C(C)C)ccc12` (stereo not shown) [Example 5, N-(4b-hydroxy-7-isopropyl-10-oxo-9b, 10-dihydro-4bH-indeno[1,2-b]benzofuran-9b-yl)-2-oxo pentanamide], the EC50 was less than 0.1 µg/mL in the series with HRV 14; greater than 8.49 µg/mL in the series with HRV 21; greater than 8.49 µg/mL in the series on HRV 71; less than 0.01 µg/mL in series [1]; less than 0.01 µg/mL in series [2]; less than 0.1 µg/mL in the series with poliovirus 3 (PV3). In the series “in vitro”, this compound came in with a CC50 of 8.49 µg/mL (≈ 21.6 µM). Further, the CC50 at 3 days in series [3] is greater than 10 µg/mL.

Consider `CCCNC(=O)OC12C(=O)c3ccccc3C1(O)Oc1cc(C(C)C)ccc12` (stereo not shown) [Example 18, 4b-hydroxy-7-isopropyl-10-oxo-4b, 10-dihydro-9bH-indeno[1,2-b]benzofuran-9b-yl propyl carbamate], for which the EC50 is greater than 10 µg/mL in the series on HRV 14; greater than 10 µg/mL in the series on HRV 21; greater than 10 µg/mL with HRV 71; less than 10 µg/mL in series [1]; less than 10 µg/mL in series [2]; greater than 10 µg/mL in the series on poliovirus 3 (PV3). For the same compound, in the series “in vitro”, the CC50 was greater than 10 µg/mL. The CC50 at 3 days in series [3] was greater than 10 µg/mL.

As to `CCCCCCC(=O)C(=O)NC12C(=O)c3cccc([N+](=O)[O-])c3C1(O)Oc1cc(C(C)C)ccc12` (stereo not shown) [Example 35, N-(4b-hydroxy-7-isopropyl-4-nitro-10-oxo-4b, 10-dihydro-9bH-indeno[1,2-b]benzofuran-9b-yl)-2-oxo octanamide], the EC50 in the series on HRV 14 was less than 10 µg/mL; in the series on HRV 21, greater than 10 µg/mL; in the series with HRV 71 it was greater than 10 µg/mL; in series [1] it was less than 1 µg/mL; in series [2], less than 1 µg/mL; in the series on poliovirus 3 (PV3), less than 10 µg/mL. Moreover, the CC50 in the series “in vitro” was greater than 10 µg/mL. In series [3], the CC50 at 3 days was greater than 10 µg/mL.

Regarding `CC(C)c1ccc2c(c1)OC1(O)c3ccccc3C(=O)C21NC(N)=S` (stereo not shown) [Example 61, 1-(4b-hydroxy-7-isopropyl-10-oxo-4b, 10-dihydro-9bH-indeno[1,2-b]benzofuran-9b-yl)thiourea], the EC50 with HRV 14 is less than 10 µg/mL; in the series on HRV 21, greater than 10 µg/mL; with HRV 71, greater than 10 µg/mL; in series [1] it was less than 0.1 µg/mL; in series [2], less than 1 µg/mL; in the series with poliovirus 3 (PV3), greater than 10 µg/mL. Also, in the series “in vitro”, the CC50 is greater than 10 µg/mL. Moreover, in series [3], the CC50 at 3 days is greater than 10 µg/mL.

For `COc1ccc(/C=C/C(=O)C(=O)NC23C(=O)c4ccccc4C2(O)Oc2cc(C(C)C)ccc23)cc1OC` (stereo not shown) [Example 24, (E)-4-(3,4-dimethoxyphenyl)-N-(4b-hydroxy-7-isopropyl-10-oxo-4b, 10-dihydro-9bH-indeno[1,2-b]benzofuran-9b-yl)-2-oxobut-3-enamide], the EC50 in the series on HRV 14 was less than 10 µg/mL; with HRV 21, greater than 10 µg/mL; with HRV 71, greater than 10 µg/mL; in series [1] it was less than 0.1 µg/mL; in series [2], less than 0.1 µg/mL; with poliovirus 3 (PV3), less than 10 µg/mL. This compound also had a CC50 in the series “in vitro” greater than 10 µg/mL. The CC50 at 3 days in series [3] is greater than 10 µg/mL.

Regarding `CC(C)c1ccc2c(c1)OC1(O)c3ccccc3C(=O)C21NC(=O)C(=O)c1ccco1` (stereo not shown) [Example 7, 2-(furan-2-yl)-N-(4b-hydroxy-7-isopropyl-10-oxo-9b, 10-dihydro-4bH-indeno[1,2-b]benzofuran-9b-yl)-2-oxo acetamide], the EC50 was less than 0.1 µg/mL in the series with HRV 14; greater than 10 µg/mL in the series with HRV 21; greater than 10 µg/mL in the series on HRV 71; less than 0.01 µg/mL in series [1]; less than 0.01 µg/mL in series [2]; less than 1 µg/mL in the series with poliovirus 3 (PV3). In “in vitro”, the CC50 was greater than 10 µg/mL. In addition, the CC50 at 3 days in series [3] was greater than 10 µg/mL.

Regarding `CC(=N)NC12C(=O)c3ccccc3C1(O)Oc1cc(C(C)C)ccc12` (stereo not shown) [Example 60, N-(4b-hydroxy-7-isopropyl-10-oxo-4b, 10-dihydro-9bH-indeno[1,2-b]benzofuran-9b-yl)acetimide amide], the EC50 was less than 10 µg/mL in the series on HRV 14; greater than 10 µg/mL with HRV 21; greater than 10 µg/mL with HRV 71; less than 1 µg/mL in series [1]; less than 10 µg/mL in series [2]; greater than 10 µg/mL in the series with poliovirus 3 (PV3). Further, the CC50 in “in vitro” is greater than 10 µg/mL. The CC50 at 3 days in series [3] is greater than 10 µg/mL.

Take `CC(C)c1ccc2c(c1)OC1(O)c3ccccc3C(=O)C21NC(=O)CCC(=O)N(C)C` (stereo not shown) [Example 44, N1-(4b-hydroxy-7-isopropyl-10-oxo-4b, 10-dihydro-9bH-indeno[1,2-b]benzofuran-9b-yl)-N4, N4-dimethyl succinamide]: the results for the EC50 (in series [1]; in series [2]; in the series with poliovirus 3 (PV3)) were less than 0.1 µg/mL, less than 0.1 µg/mL and less than 10 µg/mL, respectively. Further, in series [3], the CC50 at 3 days is greater than 10 µg/mL.

Turning to `CC(C)NC(=O)CCC(=O)NC12C(=O)c3ccccc3C1(O)Oc1cc(C(C)C)ccc12` (stereo not shown) [Example 45, N1-(4b-hydroxy-7-isopropyl-10-oxo-4b, 10-dihydro-9bH-indeno[1,2-b]benzofuran-9b-yl)-N4-isopropyl succinamide], the EC50 in series [1] is less than 0.1 µg/mL; in series [2], less than 0.1 µg/mL; in the series with poliovirus 3 (PV3), less than 10 µg/mL. The compound also had a CC50 in “in vitro” greater than 10 µg/mL. The same compound returned a CC50 at 3 days in series [3] greater than 10 µg/mL.
